The numbers were not newly measured in patent US20260115176A1, “ALLOSTERIC MODULATORS OF CANNABINOID RECEPTORS AND METHODS OF TREATING NEUROPATHIC PAIN” (The Board of Trustees of the Leland Stanford Junior …, priority 2020, published 2026), which cites them from elsewhere.

For this data set, the system named is rodent model of neuropathic pain. To be noted: background statement.

With `Cc1ccc2c(C(C[N+](=O)[O-])c3cccs3)c(-c3ccccc3)[nH]c2c1` (centres unmarked) [ZCZ-011], the “efficacy in rodent model of neuropathic pain” value is recorded as “could treat a rodent model of neuropathic pain” and the “psychoactive or hypothermic effects” value is listed as “without psychoactive or hypothermic effects”.
